# Results published in article PMC5790467, “Enhanced anti-tumor efficacy and mechanisms associated with docetaxel-piperine combination- in vitro and in vivo investigation using a taxane-resistant prostate cancer model” (Oncotarget, 2017).
# How the values were obtained:
# P-gp = P-gp (Homo sapiens, UniProt P08183); experiment: Intracellular DTX accumulation in PC3-TxR cells; assay type: cell-based; settings: 100 nM DTX; PIP at 50 μg/ml; 120 min; positive control 10 μg/ml of PSC833
# Description: The PC3 and PC3-TxR cells were seeded in 6-well plate with density of 1×10^4 cells/ml and grew for 24 hours. […] The cells were then lysed and the protein level was measured using a BCA approach (Bio Rad Laboratory, Hercules, CA, USA). […] Briefly, to 0.1 ml of cell lysate, 0.3 ml of tert-butyl methyl ether was added and vortexed for 3 min. The upper organic layer was separated and evaporated to dryness. The residue was reconstituted using 0.1 ml of 80% acetonitrile and 10 μl was injected to an HPLC-MS/MS system for quantification. Paclitaxel was used as internal standard. The intracellular concentration was normalized per protein concentration. […] PSC833 (10 μg/ml) was used as positive control. […] The amount of DTX was compared among these treatment groups.
# PC3-TxR cells = experiment: Microarray gene expression profiling of PC3-TxR cells treated with PIP; assay type: cell-based, human; settings: 6 h
# Description: The microarray technique was utilized to identify the potential mechanisms related to the chemosensitizing effect of PIP in PC3-TxR cells by determining the gene expression profile at the whole genome level. PC3-TxR cells were seeded at a density of 1 × 10^5 cells/ml in DMEM supplemented with 10% fetal bovine serum and cultured for 24 h. The cells were then treated with PIP at concentrations of 25 and 50 μg/ml (as low and high concentrations respectively) for 6 h. PIP was initially dissolved in DMSO and diluted to the target concentrations using DMEM. DMSO (0.5%) was used as the negative control (n = 2). Total RNA was extracted using RNeasy Mini Kit (QIAGEN, Valencia, CA, USA) according to the manufacturer’s protocol. The RNA was measured and the quality was checked using the RNA 6000 LabChip and Agilent 2100 BioAnalyzer. Only the high-quality RNA samples (e.g. RNA integrity number greater than 9.0) were used for subsequent microarray procedure performed at the Functional Genomics Core, Beckman Research Institute, City of Hope Comprehensive Cancer Center. Affymetrix Human Genome U133 Plus 2.0 arrays (Santa Clara, CA, USA) containing 54,675 probe sets detecting over 47,000 transcripts were used. The RNA samples were randomized and blinded prior to the microarray processing/analysis. The cRNA synthesis and labeling were carried out following the Affymetrix GeneChip 3′ IVT Express standard preparation protocol using […] of total RNA from each sample, along with polyA spike-in controls. The cRNA samples were converted to double-stranded cDNA. After second-strand synthesis, the cDNA was purified with the GeneChip sample cleanup module (Affymetrix, Santa Clara, CA). Biotinylated cRNAs were then synthesized by in vitro transcription. For each sample, […] of biotinylated cRNA along with hybridization spiked controls (bioB, bioC, bioD, and cre) was hybridized with Affymetrix Human Genome U133 Plus 2.0 array for 16 h at 45°C. Following hybridization, arrays were washed, stained, and then scanned with an Affymetrix GeneChipH 3000 7G scanner.
# Statistical testing and additional analysis of the microarray data were conducted using Partek “Gene Expression” Workflow, i.e., Filtering, PCA, Sample Histogram, QC metrics, Gene Clustering, and ANOVA Analysis). The probe-set level expression data were summarized with Robust Multichip Average (RMA) by taking all 8 microarrays together. PCA and hierarchical clustering analysis (HCA) combined with heatmap was used to assess the quality of the microarray data by evaluating the reproducibility and variation of three replicates within each group and the differences among the three groups. The log2-transformed expression intensities of 54,675 probe sets from the 8 microarrays were used to calculate the Pearson Correlation Coefficient and Ward’s Minimum Variance method was used to calculate the distance between samples.
# The differentially expressed genes (DEGs) between the treatment and control group were identified using cutoffs of t-test p value < 0.05 and fold change >2. The DEGs and probe sets were selected separately by comparing each treatment group with the control group. The dose dependent DEGs were than selected by overlapping the two DEGs sets. A functional annotation of these genes was carried out, using a gene ontology-based analysis of biological properties.
# Chain of P-gp (P08183 whole entry): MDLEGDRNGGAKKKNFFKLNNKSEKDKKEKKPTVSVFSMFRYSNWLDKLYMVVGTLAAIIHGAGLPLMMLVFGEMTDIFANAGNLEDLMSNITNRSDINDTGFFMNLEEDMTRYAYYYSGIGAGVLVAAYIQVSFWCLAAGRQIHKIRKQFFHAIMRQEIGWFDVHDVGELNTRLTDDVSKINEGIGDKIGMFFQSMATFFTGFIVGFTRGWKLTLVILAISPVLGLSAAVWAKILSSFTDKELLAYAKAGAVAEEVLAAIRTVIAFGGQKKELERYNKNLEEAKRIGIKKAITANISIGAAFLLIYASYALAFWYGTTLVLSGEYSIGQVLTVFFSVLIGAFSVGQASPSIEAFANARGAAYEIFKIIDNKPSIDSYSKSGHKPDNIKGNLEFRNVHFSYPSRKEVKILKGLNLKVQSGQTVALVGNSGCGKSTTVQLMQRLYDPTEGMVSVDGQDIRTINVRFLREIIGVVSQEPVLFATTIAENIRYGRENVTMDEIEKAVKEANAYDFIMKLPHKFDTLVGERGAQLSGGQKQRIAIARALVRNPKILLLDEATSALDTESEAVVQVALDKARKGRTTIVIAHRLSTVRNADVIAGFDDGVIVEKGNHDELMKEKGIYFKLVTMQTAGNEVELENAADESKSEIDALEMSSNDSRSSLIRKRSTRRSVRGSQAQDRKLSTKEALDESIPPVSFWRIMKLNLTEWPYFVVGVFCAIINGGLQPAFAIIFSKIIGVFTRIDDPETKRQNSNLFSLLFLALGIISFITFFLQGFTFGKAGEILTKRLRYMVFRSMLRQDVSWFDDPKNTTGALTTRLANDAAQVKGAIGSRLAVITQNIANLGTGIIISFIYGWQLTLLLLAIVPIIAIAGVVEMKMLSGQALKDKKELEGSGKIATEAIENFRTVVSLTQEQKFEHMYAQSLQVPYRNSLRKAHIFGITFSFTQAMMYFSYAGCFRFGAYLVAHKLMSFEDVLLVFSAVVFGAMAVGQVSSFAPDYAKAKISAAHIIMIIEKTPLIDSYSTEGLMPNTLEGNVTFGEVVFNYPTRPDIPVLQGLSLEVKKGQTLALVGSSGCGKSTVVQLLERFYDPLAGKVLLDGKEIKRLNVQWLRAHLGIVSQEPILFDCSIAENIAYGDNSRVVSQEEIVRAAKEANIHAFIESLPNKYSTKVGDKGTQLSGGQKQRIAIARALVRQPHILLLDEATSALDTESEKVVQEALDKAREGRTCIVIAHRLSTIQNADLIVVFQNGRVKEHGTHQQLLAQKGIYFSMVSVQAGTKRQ
smiles,measurement,setting,value
"O=C(/C=C/C=C/c1ccc2c(c1)OCO2)N1CCCCC1 [PIP, 1-piperoyl piperidine]",intracellular DTX concentration in PC3-TxR cells,P-gp,increased to a level similar to that in the positive control
same,expression change of Angiopoietin-like 4,PC3-TxR cells; High dose PIP,1.6
same,expression change of CYP1B1,PC3-TxR cells; High dose PIP,−4.3
same,"expression change of Fatty acid binding protein 4, adipocyte",PC3-TxR cells; High dose PIP,1.9
same,expression change of Keratin associated protein 2–3,PC3-TxR cells; High dose PIP,−4.7
same,expression change of Keratin associated protein 3–1,PC3-TxR cells; High dose PIP,−2.7
same,expression change of Metastasis associated lung adenocarcinoma transcript 1 (non-protein coding),PC3-TxR cells; High dose PIP,4.1
same,expression change of O-linked N-acetylglucosamine (GlcNAc) transferase,PC3-TxR cells; High dose PIP,2.3
same,"expression change of Sodium channel, non-voltage-gated 1, gamma subunit",PC3-TxR cells; High dose PIP,1.5
same,expression change of TCDD-inducible poly(ADP-ribose) polymerase,PC3-TxR cells; High dose PIP,−2.6
same,expression change of Thrombospondin 1,PC3-TxR cells; High dose PIP,−2.4
same,expression change of Angiopoietin-like 4,PC3-TxR cells; Low dose PIP,2.3
same,expression change of CYP1B1,PC3-TxR cells; Low dose PIP,−5.1
same,"expression change of Fatty acid binding protein 4, adipocyte",PC3-TxR cells; Low dose PIP,2.5
same,expression change of Keratin associated protein 2–3,PC3-TxR cells; Low dose PIP,−3.3
same,expression change of Keratin associated protein 3–1,PC3-TxR cells; Low dose PIP,−2.0
same,expression change of Metastasis associated lung adenocarcinoma transcript 1 (non-protein coding),PC3-TxR cells; Low dose PIP,3.0
same,expression change of O-linked N-acetylglucosamine (GlcNAc) transferase,PC3-TxR cells; Low dose PIP,2.0
same,"expression change of Sodium channel, non-voltage-gated 1, gamma subunit",PC3-TxR cells; Low dose PIP,2.5
same,expression change of TCDD-inducible poly(ADP-ribose) polymerase,PC3-TxR cells; Low dose PIP,−2.8
same,expression change of Thrombospondin 1,PC3-TxR cells; Low dose PIP,−2.2
